Assay [1] addresses T1, mTRPM7 (Mus musculus, UniProt Q923J1).
T1 construct: gene Trpm7; full-length mTRPM7 in pIRES2-EGFP, HEK 293 cells
Briefly: whole-cell patch clamp, intracellular dose response ([…] free Mg2+). The format is cell-based. Background: In patch-clamp work, channel activity is measured electrically.

The target of assay [2] is T2, mTRPM6 (Mus musculus, UniProt Q8CIR4).
T2 construct: gene Trpm6; full-length mTRPM6 (2028 aa) in pIRES2-EGFP, HEK 293 cells
Briefly: whole-cell patch clamp; […] inhibits currents. The format is cell-based.

The target of assay [3] is mouse TRPM7 (mTRPM7) fused to a myc tag (mTRPM7-myc) (mouse) (UniProt Q923J1).
Chain of mouse TRPM7 (mTRPM7) fused to a myc tag (mTRPM7-myc) (mouse) (Q923J1 whole entry, the tested form may be a part): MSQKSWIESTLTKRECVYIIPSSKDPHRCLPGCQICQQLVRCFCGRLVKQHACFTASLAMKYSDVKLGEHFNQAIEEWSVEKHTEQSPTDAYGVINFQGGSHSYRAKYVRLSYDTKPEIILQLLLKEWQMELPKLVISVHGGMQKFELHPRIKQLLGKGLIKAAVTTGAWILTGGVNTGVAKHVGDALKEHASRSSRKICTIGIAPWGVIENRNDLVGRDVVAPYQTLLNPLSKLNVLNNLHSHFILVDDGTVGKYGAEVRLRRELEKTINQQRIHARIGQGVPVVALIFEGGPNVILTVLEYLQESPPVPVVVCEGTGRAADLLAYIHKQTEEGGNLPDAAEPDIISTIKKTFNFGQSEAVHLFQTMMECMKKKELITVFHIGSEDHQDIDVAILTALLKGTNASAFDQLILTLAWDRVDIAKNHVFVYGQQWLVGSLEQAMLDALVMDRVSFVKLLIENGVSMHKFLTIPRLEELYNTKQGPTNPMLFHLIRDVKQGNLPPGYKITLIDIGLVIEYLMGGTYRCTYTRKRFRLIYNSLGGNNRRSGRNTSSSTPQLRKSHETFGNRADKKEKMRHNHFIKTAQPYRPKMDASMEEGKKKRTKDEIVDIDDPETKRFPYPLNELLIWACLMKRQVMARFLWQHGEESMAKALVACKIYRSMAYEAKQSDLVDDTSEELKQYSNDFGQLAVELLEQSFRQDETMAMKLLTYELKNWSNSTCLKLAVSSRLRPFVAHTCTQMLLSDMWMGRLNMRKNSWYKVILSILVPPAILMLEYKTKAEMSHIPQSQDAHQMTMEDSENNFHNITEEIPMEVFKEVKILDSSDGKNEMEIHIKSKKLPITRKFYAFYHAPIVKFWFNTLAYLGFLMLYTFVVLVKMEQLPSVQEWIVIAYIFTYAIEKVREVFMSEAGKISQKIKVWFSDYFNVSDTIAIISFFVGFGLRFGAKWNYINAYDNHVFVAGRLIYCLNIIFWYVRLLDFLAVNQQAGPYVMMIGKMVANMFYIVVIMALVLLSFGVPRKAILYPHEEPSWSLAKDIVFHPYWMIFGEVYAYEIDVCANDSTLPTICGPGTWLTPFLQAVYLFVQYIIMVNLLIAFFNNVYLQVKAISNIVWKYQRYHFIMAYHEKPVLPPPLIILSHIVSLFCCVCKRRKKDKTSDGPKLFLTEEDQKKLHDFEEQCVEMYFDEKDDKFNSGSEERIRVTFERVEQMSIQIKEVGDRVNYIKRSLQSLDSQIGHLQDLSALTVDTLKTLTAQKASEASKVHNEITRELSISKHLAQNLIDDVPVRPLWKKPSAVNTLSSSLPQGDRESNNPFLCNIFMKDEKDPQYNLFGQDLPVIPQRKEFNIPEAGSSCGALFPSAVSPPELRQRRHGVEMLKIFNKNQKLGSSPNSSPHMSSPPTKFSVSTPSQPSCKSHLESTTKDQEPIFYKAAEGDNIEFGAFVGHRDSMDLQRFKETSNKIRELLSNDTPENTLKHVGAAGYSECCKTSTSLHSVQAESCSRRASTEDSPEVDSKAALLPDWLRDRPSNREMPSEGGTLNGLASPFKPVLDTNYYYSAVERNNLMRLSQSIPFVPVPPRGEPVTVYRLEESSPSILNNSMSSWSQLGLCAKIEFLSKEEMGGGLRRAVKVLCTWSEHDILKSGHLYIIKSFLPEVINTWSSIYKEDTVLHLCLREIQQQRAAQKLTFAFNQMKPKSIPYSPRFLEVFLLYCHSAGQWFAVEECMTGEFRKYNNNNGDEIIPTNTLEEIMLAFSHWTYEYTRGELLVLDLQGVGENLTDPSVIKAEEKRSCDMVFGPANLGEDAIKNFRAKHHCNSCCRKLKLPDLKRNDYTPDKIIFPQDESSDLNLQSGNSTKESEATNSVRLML

T2 sequence (Q8CIR4 whole entry): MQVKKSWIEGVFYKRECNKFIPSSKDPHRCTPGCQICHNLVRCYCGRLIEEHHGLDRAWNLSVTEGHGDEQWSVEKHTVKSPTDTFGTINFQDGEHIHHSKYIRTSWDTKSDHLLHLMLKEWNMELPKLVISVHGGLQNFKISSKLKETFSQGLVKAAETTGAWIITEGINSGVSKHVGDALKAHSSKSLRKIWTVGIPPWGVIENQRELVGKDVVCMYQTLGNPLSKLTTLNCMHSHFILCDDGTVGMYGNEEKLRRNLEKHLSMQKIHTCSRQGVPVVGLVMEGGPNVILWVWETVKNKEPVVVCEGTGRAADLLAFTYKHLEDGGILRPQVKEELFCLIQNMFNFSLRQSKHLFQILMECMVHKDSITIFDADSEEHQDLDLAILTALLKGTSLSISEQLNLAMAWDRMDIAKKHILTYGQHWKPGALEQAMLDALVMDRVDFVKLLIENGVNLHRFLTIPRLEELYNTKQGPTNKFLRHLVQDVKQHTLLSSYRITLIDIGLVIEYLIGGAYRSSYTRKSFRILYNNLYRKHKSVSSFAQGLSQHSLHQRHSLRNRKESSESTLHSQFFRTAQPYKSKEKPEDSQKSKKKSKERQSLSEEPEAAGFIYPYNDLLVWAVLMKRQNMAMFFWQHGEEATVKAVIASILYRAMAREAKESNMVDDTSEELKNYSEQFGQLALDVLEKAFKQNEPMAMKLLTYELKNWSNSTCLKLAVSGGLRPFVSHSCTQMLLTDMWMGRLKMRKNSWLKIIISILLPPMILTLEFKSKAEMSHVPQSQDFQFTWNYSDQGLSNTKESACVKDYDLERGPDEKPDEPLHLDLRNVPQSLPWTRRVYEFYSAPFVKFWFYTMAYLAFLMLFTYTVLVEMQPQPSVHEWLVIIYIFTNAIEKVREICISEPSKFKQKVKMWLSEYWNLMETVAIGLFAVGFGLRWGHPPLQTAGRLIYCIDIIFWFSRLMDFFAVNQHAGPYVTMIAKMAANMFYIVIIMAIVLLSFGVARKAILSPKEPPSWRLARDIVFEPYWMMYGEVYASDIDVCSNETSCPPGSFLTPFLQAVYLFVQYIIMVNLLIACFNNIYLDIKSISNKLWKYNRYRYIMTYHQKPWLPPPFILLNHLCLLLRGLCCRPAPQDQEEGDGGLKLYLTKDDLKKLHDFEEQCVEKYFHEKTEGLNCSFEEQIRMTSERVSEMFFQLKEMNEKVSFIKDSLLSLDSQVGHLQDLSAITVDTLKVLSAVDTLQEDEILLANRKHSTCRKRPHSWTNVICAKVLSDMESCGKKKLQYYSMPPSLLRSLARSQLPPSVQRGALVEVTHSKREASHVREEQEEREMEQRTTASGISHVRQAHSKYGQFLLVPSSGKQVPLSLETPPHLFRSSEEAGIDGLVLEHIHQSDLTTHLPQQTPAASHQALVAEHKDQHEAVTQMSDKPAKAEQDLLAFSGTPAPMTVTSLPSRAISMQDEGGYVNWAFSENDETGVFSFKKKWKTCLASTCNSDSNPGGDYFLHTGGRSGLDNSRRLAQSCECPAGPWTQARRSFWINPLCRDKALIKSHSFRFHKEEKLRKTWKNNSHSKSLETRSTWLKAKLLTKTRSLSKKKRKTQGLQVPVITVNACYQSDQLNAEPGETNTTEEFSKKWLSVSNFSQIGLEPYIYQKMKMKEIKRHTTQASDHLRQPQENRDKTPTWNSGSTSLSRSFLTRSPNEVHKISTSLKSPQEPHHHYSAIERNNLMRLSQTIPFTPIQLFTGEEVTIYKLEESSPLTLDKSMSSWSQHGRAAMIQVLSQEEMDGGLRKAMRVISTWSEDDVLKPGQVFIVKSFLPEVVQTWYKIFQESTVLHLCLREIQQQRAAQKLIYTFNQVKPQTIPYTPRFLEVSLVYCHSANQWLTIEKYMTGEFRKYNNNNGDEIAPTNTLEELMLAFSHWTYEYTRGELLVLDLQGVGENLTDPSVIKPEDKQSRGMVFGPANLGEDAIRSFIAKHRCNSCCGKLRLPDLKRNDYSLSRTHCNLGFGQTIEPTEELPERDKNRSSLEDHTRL
T1 sequence (Q923J1 whole entry): as the sequence (Q923J1 whole entry, the tested form may be a part) above

In assay [1], `Nc1ncnc2c1ncn2[C@@H]1O[C@H](COP(=O)(O)OP(=O)(O)OP(=O)(O)O)[C@@H](O)[C@H]1O` [Mg·ATP] displayed an IC50 of 2930 µM.

As for `c1ccc2c(c1)CCC[C@H]2Nc1nc2ccccc2[nH]1` [NS8593], the “whole-cell patch clamp; 10 μM inhibits currents” value in assay [2] is “We noted that NS8593 caused a rapid irreversible inhibition of mTRPM6”.

Regarding “mouse TRPM6 with a C-terminal yellow fluorescent protein tag (mTRPM6-YFP), Q8CIR4 1-2028”, in assay [3], the whole-cell currents at break-in (pre-activated outward currents) in HEK 293 cells co-transfected with mTRPM6 and mTRPM7, against cells with mTRPM7 alone worked out at 10 fold.

As a reminder, the IC50 is the concentration that inhibits the measured activity by half. Low readings indicate higher potency, high ones lower potency.
